In article PMC8877291, “Design and Synthesis of Arylpiperazine Serotonergic/Dopaminergic Ligands with Neuroprotective Properties” (Molecules, 2022):

Key:
[1] = target: T1, serotonin 5-HT2A receptor (Homo sapiens, UniProt P28223); assay: 5-HT2A receptor radioligand competition binding ([3H]-ketanserin); details: human cloned receptor, CHO-K1 membranes, 1 nM [3H]-ketanserin; ± S.E.M., n = 3 in duplicate; read-out: Affinity Ki 5-HT2A
T1 construct: expressed in transfected cells

dopamine D5 receptor = target: T2, dopamine D5 receptor (Homo sapiens, UniProt P21918); assay: Dopamine D5 receptor competition binding ([3H]-SCH23390); details: HEK-293 membranes, [3H]-SCH23390 0.3 nM, mean (CI 95%), read-out: Affinity Ki D5
T2 construct: expressed in transfected cells
Procedure: (§1) The final compounds were tested for their affinity at serotonin 5-HT1A, 5-HT2A, and 5-HT7 receptors and at dopamine D1, D2, D3, and D5 receptors. As a first step, competition radioligand binding assays were carried out for all the compounds at the single concentration of 10 µM, on membrane preparations from stable cell lines heterologously expressing the human cloned 5-HT1A, 5-HT2A, or 5-HT7 receptors. […] For the affinity determination at dopamine receptor subtypes, membrane fractions of human dopamine D2s, D3, D1, and D5 receptor-expressing cells were used. They were co-incubated with [^3H]spiperone (for D2s and D3 receptor) or [^3H]SCH23390 (for D1 and D5 receptor) and appropriate concentrations of test compound for 120 min. Bound radioligand was separated from the free ligand using filtration. Radioactivity was measured by liquid scintillation counting.
(§2) The affinity for dopamine D1 and D5 receptors was evaluated in membrane fractions of HEK-293 cells stably expressing the human dopamine D1 or D5 receptor. HEK-293-D1 cells were cultured in DMEM/F12 (15 mM HEPES, 1.2 g/L NaHCO3) with 10% (v/v) FBS and 1% (v/v) L-glutamine. HEK-293-D5 cells were cultured in DMEM/F12 (with L-glutamine, 1.2 g/L NaHCO3) with 20% (v/v) FBS. Preparation of membrane fractions and radioligand competition assays were performed as previously described. Briefly, membrane fractions were co-incubated with [^3H]-SCH23390 (0.3 nM) and different concentrations of test compound for 120 min at room temperature. Fluphenazine (100 µM) was used to determine non-specific binding and as reference compound.
(§3) Data of at least three independent experiments in triplicate were analyzed using GraphPad Prism 8.1 (San Diego, CA, USA). Binding curves were fitted to a non-linear regression model (one-site competition). Ki values were calculated from IC50 values using the Cheng–Prusoff equation. The statistical calculations were performed on –log(Ki).

dopamine D3 receptor = dopamine D3 receptor (Homo sapiens, UniProt P35462); assay: Dopamine D3 receptor competition binding ([3H]spiperone)
Procedure: (§4) Competition binding experiments at dopamine D2s and D3 receptor were performed to determine the affinity of the compounds. […] Membrane preparations of transfected CHO-K1 cells stably expressing the human D2s or D3 receptor were performed according to Bautista-Aguilera et al. [26]. The competition binding experiments were conducted as previously reported [26, 27]. Briefly, membrane fractions (D2sR: 25 µg/200 µL; D3R: 20 µg/200 µL) were incubated with [^3H]spiperone (0.2 nM) and test compound for 120 min at room temperature. […] Non-specific binding was determined in the presence of 10 µM haloperidol. Haloperidol was also used as reference compound. Separation of the bound ligand from the free ligand was conducted by filtration through GF/B filters using deionized water.

dopamine D2s receptor = dopamine D2s receptor (Homo sapiens, UniProt P14416); assay: Dopamine D2s receptor competition binding ([3H]spiperone)
Procedure: as §4

dopamine D1 receptor = target: T3, dopamine D1 receptor (Homo sapiens, UniProt P21728); assay: Dopamine D1 receptor competition binding ([3H]-SCH23390); details: HEK-293 membranes, [3H]-SCH23390 0.3 nM, mean (CI 95%), read-out: Affinity Ki D1
T3 construct: expressed in transfected cells
Procedure: as §1, §2, §3

[2] = Stability assay in rat liver microsomes; assay type: in vitro ADME; details: NADPH-regenerating system; for remaining at 30 min, 10 μM: pH 7.4, rat liver microsomes, 30 min incubation, read-out: Metabolic Stability (percentage of recovery of the parent compound); for in vitro metabolic stability (in words): rat microsomes, 30 min
Procedure: To evaluate the susceptibility to first-pass oxidative metabolism, the leading cause of metabolic degradation in vivo [17] the target compounds were incubated with rat liver microsomes. The turnover of the parent compound was assessed as the percentage of the parent compound recovered after 30 min of incubation with microsomes in the presence of an NADPH-regenerating system.
Test compounds were pre-incubated at 37 °C with rat liver microsomes (Tebu-Bio, Milan, Italy) (1.0 mg/mL microsomal protein) at 10 μM final concentration in 100 mM potassium phosphate buffer (pH 7.4) for 10 min. Metabolic reactions were initiated by the addition of the NADPH regenerating system (containing 10 mM NADP, 50 mM glucose-6-phosphate, and 10 unit/mL glucose-6-phosphate dehydrogenase, final glucose-6-phosphate dehydrogenase concentration, 1 unit/mL). After 30 min incubation, the reaction mixture was quenched by adding an equal volume of cold acetonitrile containing the internal standard. A test compound incubated with microsomes without NADPH regenerating system was included. Quenched samples were centrifuged at 4500 rpm for 15 min and the supernatants were injected for quantification analysis. Samples (100 μL) were analyzed by using an Agilent 1260 Infinity Binary LC System equipped with a diode array detector (Open Lab software was used to analyze the chromatographic data) and a Phenomenex Gemini C-18 column (250 mm × 4.6 mm, 5 μm particle size). The samples were eluted using CH3CN/20 mM ammonium formate pH 5.5 (7:3, v/v) as eluent (volumetric flow rate =1 mL/min). Concentrations were quantified by measuring the area under the peak.
The percentage of the parent compound remaining after a 30-min incubation was calculated according to the equation:% of parent compound remaining after 30 min = Cparent/Ccontrol × 100(1) where Cparent is ligand concentration after incubation with microsome fraction and NADPH regenerating system and Ccontrol is ligand concentration after incubation with microsome fraction only.

[3] = Cytotoxicity in SH-SY5Y cells (MTT assay); assay type: cell-based, human; details: human, SH-SY5Y neuroblastoma cells, MTT, 0.1 to 100 μM, ± S.E.M.
Procedure: Initially, the cytotoxicity of the target compounds was assessed by treating SH-SY5Y cells for 48 h with various concentrations of compounds (0.1 to 100 μM).
SH-SY5Y neuroblastoma cells (cat. CRL-2266, ATCC) were cultured in a 1:1 mixture of Eagle’s Minimum Essential Medium (cat. 15-010-CVR, Corning) and Ham’s F12 medium (cat. 10-080-CVR, Corning). This medium was supplemented with 10% (v/v) Fetal Bovine Serum (cat. 35-079-CV, Corning), 1% (v/v) Glutamine (cat. ECB3000D, Euro Clone) and 1% (v/v) Penicillin—Streptomycin (cat.30-002-CI, Corning). Cells were cultivated at 37 °C with 5% CO2 at saturated humidity.
Determination of cell growth was performed using the MTT assay at 48 h. On day 1, 25,000 cells/well were seeded into 96-well plates in a volume of 100 μL. On day 2, the various drug concentrations ([…]–100 μM) were added. In all the experiments, the various drug-solvents (EtOH, DMSO) were added in each control to evaluate possible solvent cytotoxicity. After the established incubation time with drugs (48 h), MTT (0.5 mg/mL) was added to each well, and after 3–4 h incubation at 37 °C, the supernatant was removed. The formazan crystals were solubilized using 100 μL of DMSO/EtOH (1:1, v/v) and the absorbance values at 570 and 630 nm were determined on the microplate reader Victor 3 (PerkinElmer Life Sciences, Waltham, MA, USA).

T3 sequence (P21728 whole entry): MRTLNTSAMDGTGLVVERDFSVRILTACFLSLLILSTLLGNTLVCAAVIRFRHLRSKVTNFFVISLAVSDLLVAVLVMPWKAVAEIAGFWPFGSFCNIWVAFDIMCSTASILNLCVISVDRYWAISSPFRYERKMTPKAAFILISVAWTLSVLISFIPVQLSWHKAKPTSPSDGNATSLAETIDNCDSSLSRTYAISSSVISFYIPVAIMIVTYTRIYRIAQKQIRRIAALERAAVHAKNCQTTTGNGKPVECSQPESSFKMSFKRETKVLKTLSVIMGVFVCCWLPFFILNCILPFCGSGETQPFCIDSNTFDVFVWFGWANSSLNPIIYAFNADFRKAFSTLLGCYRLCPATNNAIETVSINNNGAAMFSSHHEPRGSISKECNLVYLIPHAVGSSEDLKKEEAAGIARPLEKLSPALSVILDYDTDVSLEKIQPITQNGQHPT
T1 sequence (P28223 whole entry): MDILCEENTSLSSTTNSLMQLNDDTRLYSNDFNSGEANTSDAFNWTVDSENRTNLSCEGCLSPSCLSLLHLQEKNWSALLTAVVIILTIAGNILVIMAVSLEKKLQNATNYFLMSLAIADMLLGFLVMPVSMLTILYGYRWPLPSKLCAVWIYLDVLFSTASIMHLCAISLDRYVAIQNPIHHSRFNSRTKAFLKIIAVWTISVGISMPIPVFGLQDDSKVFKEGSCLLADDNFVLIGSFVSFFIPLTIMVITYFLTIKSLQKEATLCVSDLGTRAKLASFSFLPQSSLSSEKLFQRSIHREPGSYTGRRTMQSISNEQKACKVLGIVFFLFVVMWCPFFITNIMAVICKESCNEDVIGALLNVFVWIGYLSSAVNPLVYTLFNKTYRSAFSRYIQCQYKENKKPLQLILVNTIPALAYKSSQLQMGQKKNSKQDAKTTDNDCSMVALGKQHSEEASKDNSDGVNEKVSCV
T2 sequence (P21918 whole entry): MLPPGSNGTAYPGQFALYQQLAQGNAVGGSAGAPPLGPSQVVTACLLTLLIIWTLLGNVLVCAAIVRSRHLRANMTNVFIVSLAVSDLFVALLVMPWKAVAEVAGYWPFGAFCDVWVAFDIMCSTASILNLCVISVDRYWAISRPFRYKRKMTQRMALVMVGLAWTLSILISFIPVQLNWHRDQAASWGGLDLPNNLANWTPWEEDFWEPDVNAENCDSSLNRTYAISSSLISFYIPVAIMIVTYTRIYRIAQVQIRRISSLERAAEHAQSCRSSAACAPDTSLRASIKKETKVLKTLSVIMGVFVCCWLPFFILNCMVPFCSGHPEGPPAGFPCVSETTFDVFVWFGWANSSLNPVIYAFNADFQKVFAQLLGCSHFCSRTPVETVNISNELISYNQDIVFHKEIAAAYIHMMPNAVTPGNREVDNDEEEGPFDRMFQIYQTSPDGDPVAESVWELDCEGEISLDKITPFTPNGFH
dopamine D3 receptor, sequence (P35462 whole entry): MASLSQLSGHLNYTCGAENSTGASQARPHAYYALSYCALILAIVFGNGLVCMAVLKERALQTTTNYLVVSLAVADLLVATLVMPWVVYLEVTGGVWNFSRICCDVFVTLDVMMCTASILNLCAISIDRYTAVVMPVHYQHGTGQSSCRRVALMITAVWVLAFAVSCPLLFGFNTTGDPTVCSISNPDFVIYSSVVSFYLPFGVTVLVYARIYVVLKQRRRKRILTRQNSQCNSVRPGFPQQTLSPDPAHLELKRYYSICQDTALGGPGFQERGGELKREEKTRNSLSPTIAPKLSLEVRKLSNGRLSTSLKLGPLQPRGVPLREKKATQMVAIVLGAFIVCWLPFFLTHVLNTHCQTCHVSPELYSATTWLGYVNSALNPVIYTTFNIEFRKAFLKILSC
dopamine D2s receptor, sequence (P14416 1-414 isoform P14416-2): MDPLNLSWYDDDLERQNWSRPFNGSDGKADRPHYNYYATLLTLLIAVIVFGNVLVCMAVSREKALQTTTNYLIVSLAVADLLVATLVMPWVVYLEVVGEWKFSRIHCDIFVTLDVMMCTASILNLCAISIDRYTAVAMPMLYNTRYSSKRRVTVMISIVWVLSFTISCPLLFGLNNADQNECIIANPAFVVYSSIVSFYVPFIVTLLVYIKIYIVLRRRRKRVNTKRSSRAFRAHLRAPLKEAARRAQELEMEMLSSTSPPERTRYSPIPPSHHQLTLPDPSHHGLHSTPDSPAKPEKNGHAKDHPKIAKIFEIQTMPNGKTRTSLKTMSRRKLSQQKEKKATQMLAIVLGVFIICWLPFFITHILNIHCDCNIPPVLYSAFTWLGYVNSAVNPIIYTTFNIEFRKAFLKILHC

Compound | Ki [1] [nM] | Ki (dopamine D5 receptor) [nM] | Ki (dopamine D3 receptor) [nM] | Ki (dopamine D2s receptor) [nM] | Ki (dopamine D1 receptor) [nM] | remaining at 30 min, 10 μM [2] [%] | EC50 at 48 h [3] [µM] | in vitro metabolic stability (in words) [2]
CC1Oc2ccc(OCCCN3CCN(c4ncccc4-c4ccncc4)CC3)cc2NC1=O (centres unmarked) [Compound 8a, 6-(3-(4-([3,4’-Bipyridin]-2-yl)piperazin-1-yl)propoxy)-2-methyl-2H-benzo[b][1,4]oxazin-3(4H)-one] | 782 ± 119 | 7410 | 1220 | 388 | 6290 | 4 | 32.9 ± 3.5 | –
CC1Oc2ccc(OCCCCN3CCN(c4ncccc4-c4ccncc4)CC3)cc2NC1=O (centres unmarked) [Compound 8b, 6-(4-(4-([3,4’-Bipyridin]-2-yl)piperazin-1-yl)butoxy)-2-methyl-2H-benzo[b][1,4]oxazin-3(4H)-one] | 611 ± 87 | 8200 | 691 | 9.08 | 1710 | 14 | 25.5 ± 2.2 | –
COc1ccc(-c2cc(F)ccc2N2CCN(CCCCn3ncc(=O)n(C)c3=O)CC2)cc1 [Compound 9b, 2-(4-(4-(5-Fluoro-4’-methoxy-[1,1’-biphenyl]-2-yl)piperazin-1-yl)butyl)-4-methyl-1,2,4-triazine-3,5(2H,4H)-dione] | 39.4 ± 7.4 | 222 | > 10000 | > 10000 | 88.3 | 45 | 51.9 ± 4.3 | –
Cn1c(=O)cnn(CCCN2CCN(c3ccc(F)cc3-c3ccc(C#N)cc3)CC2)c1=O [Compound 10a, 5’-Fluoro-2’-(4-(3-(4-methyl-3,5-dioxo-4,5-dihydro-1,2,4-triazin-2(3H)-yl)propyl)piperazin-1-yl)-[1,1’-biphenyl]-4-carbonitrile] | 96.8 ± 11 | 180 | > 10000 | > 10000 | 104 | 5 | 28.2 ± 3.2 | –
Cn1c(=O)cnn(CCCCN2CCN(c3ccc(F)cc3-c3ccc(C#N)cc3)CC2)c1=O [Compound 10b, 5’-Fluoro-2’-(4-(4-(4-methyl-3,5-dioxo-4,5-dihydro-1,2,4-triazin-2(3H)-yl)butyl)piperazin-1-yl)-[1,1’-biphenyl]-4-carbonitrile] | 80.7 ± 3.1 | 101 | > 10000 | > 10000 | 140 | 26 | 34.3 ± 2.5 | borderline stability value
Cn1c(=O)cnn(CCCN2CCN(c3ncccc3-c3ccncc3)CC2)c1=O [Compound 11a, 2-(3-(4-([3,4’-Bipyridin]-2-yl)piperazin-1-yl)propyl)-4-methyl-1,2,4-triazine-3,5(2H,4H)-dione] | > 10000 | > 10000 | > 10000 | > 10000 | > 10000 | 4 | > 100 | –
Cn1c(=O)cnn(CCCCN2CCN(c3ncccc3-c3ccncc3)CC2)c1=O [Compound 11b, 2-(4-(4-([3,4’-Bipyridin]-2-yl)piperazin-1-yl)butyl)-4-methyl-1,2,4-triazine-3,5(2H,4H)-dione] | > 10000 | > 10000 | > 10000 | > 10000 | > 10000 | 3 | > 100 | –
Cc1cc(=O)oc2cc(OCCCN3CCN(c4ncccc4-c4ccncc4)CC3)ccc12 [Compound 12a, 7-(3-(4-([3,4’-Bipyridin]-2-yl)piperazin-1-yl)propoxy)-4-methyl-2H-chromen-2-one] | 315 ± 44 | > 10000 | 1080 | 300 | 2200 | 19 | 35.2 ± 4.1 | borderline stability value
Cc1cc(=O)oc2cc(OCCCCN3CCN(c4ncccc4-c4ccncc4)CC3)ccc12 [Compound 12b, 7-(4-(4-([3,4’-Bipyridin]-2-yl)piperazin-1-yl)butoxy)-4-methyl-2H-chromen-2-one] | ~1420 | 2730 | 424 | 17 | 1530 | 14 | 47.9 ± 3.5 | –
